Key:
human CRTH2 [1] = molecular target: T1, human CRTH2 (Homo sapiens, UniProt Q9Y5Y4, V204A); assay: Functional antagonist BRET assay on HEK293 cells stably expressing human CRTH2-Rluc and GFP2-β-arr2; assay type: cell-based; parameters: expressed in transfected cells; details: BRET, antagonist incubated 15 minutes prior to agonist; read-out: Antag. IC50
T1 sequence (Q9Y5Y4 1-395 V204A): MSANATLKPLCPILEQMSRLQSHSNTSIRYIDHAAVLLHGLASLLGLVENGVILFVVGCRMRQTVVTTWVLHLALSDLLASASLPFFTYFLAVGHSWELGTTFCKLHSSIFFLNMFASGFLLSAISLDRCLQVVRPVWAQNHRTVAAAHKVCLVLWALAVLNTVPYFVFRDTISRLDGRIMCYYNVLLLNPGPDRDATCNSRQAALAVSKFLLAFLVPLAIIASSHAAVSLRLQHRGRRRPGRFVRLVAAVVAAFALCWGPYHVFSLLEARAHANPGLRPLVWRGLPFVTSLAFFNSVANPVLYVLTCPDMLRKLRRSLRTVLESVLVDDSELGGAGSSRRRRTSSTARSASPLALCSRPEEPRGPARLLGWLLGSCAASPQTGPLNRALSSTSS
Source text: (§1) Generation/origin of the cDNA Constructs. The coding sequence of the human CRTH2 receptor (genbank accession no NM_004778) was amplified by PCR from a human hippocampus cDNA library and inserted into the pcDNA3.1(+) expression vector (invitrogen) via 5′ HindIII and 3′ EcoRI. To generate a CRTH2-Renilla luciferase (CRTH2-Rluc) fusion protein, the CRTH2 coding sequence without a STOP codon and Rluc were amplified, fused in frame by PCR and subcloned into the pcDNA3.1(+)Zeo expression vector (invitrogen). Human β-arrestin2 (β-arr2) N-terminally tagged with GFP^2 (βarr2-GFP^2) and Renilla luciferase were purchased from BioSignal Packard Inc, (Montreal, Canada). The sequence identity of the construct was verified by restriction endonuclease digests and sequencing in both directions on an ABI Prism (Applied Biosystems, Foster City, Calif.).
(§2) Cell Culture and Transfection. COS-7 cells were grown in Dulbecco's modified Eagle's medium (DMEM) 1885 supplemented with 10% fetal bovine serum, 100 units/ml penicillin, […] streptomycin, and kept at 37° C. in a 10% CO2 atmosphere. HEK293 cells were maintained in Minimum Essential medium (MEM) supplemented with 10% (v/v) heat inactivated fetal calf serum (HIFCS), 2 mM Glutamax™-I, 1% non essential amino acids (NEAA), 1% sodium pyruvate and 10 μg/ml gentamicin. For binding experiments, COS7 cells were transiently transfected with the CRTH2 receptor using a calcium phosphate-DNA coprecipitation method with the addition of chloroquine (as described by Holst et al., 2001↓). To perform the functional Bioluminescence Resonance Energy Transfer (BRET) assays, a HEK293 cell clone stably expressing βarr2-GFP^2 and CRTH2-Rluc was generated (CRTH2-HEK293 cells).
BRET assay. Functional BRET assays were performed on HEK293 cells stably expressing human CRTH2-Rluc and GFP^2-β-arr2. Prior to their use in the BRET assay cells were detached and re-suspended in D-PBS with 1000 mg/L L-Glucose at a density of 2×10^6 cells/mL. DeepBlueC™ was diluted to 50 μM in D-PBS with 1000 mg/L L-Glucose (light sensitive). 100 μL of cell suspension was transferred to wells in a 96-well microplate (white OptiPlate) and placed in the Mithras LB 940 instrument (BERTHOLD TECHNOLOGIES, Bad Wildbad, Germany). 12 μL/well agonist was then injected by injector 1 and 10 μL/well DeepBlueC™ was injected simultaneously by injector 2. Five seconds after the injections the light output from the well was measured sequentially at 400 nm and 515 nm, and the BRET signal (mBRET ratio) was calculated by the ratio of the fluorescence emitted by GFP^2-β-arr2 (515 nm) over the light emitted by the receptor-Rluc (400 nm). Antagonists were added before placing the microplates into the Mithras LB 940 and allowed to incubate for 15 minutes prior to the addition of agonist and DeepBlueC™. Compounds were dissolved in DMSO and the final DMSO concentration was kept constant at 1% in the assay.
(§3) Curve analysis was performed with the GraphPadPrism software 3.0 (Graphpad Prism Inc., San Diego, USA) and IC50 values were calculated as a measure of the antagonistic potencies.

human CRTH2 [2] = molecular target: T1, human CRTH2; assay: Receptor binding assay: [3H]PGD2 competition binding on whole COS-7 cells transiently transfected with CRTH2 (also stable HEK293 cells); parameters: expressed in transfected cells; host or cells: COS-7 (transient, calcium phosphate); details: competition with 0.1 nM [3H]PGD2, whole cells, 3 h at 4° C.
Source text: as §1, §2
Binding assay. 24 h after transfection COS-7 cells were seeded into 96 well plates at a density of 30.000 cells/well. Competition binding experiments on whole cells were then performed about 18-24 h later using 0.1 nM [^3H]PGD2 (NEN, 172 Ci/mmol) in a binding buffer consisting of HBSS (GIBCO) and 10 mM HEPES. Competing ligands were diluted in DMSO which was kept constant at 1% (v/v) of the final incubation volume. Total and nonspecific binding were determined in the absence and presence of 10 μM PGD2. Binding reactions were routinely conducted for 3 h at 4° C. and terminated by 2 washes (100 μl each) with ice cold binding buffer. Radioactivity was determined by liquid scintillation counting in a TOPCOUNTER (Packard) following over night incubation in Microscint 20. Stable HEK293 cells were seeded at a density of 30.000 cells/well 18-24 h prior to the binding assay which was performed essentially as described for COS7 cells above. Determinations were made in duplicates.
as §3

CSc1ccccc1-n1cc(C(=O)c2cc(Br)ccc2OCC(=O)O)cn1 [D44, {4-Bromo-2-[1-(2-methylthiophenyl)-1H-pyrazole-4-carbonyl]phenoxy}acetic acid]
IC50 (human CRTH2 [1]): < 500 nM
IC50 (human CRTH2 [2]): < 500 nM

Cc1ccc(-n2cc(C(=O)c3cc(Br)ccc3OCC(=O)O)cn2)c(Br)c1 [D45, {4-Bromo-2-[1-(2-bromo-4-methylphenyl)-1H-pyrazole-4-carbonyl]phenoxy}acetic acid]
IC50 (human CRTH2 [1]): < 500 nM
IC50 (human CRTH2 [2]): < 500 nM

CCc1cc(Br)ccc1-n1cc(C(=O)c2cc(Br)ccc2OC(C)C(=O)O)cn1 (centres unmarked) [D46, 2-{4-Bromo-2-[1-(4-bromo-2-ethylphenyl)-1H-pyrazole-4-carbonyl]phenoxy}propionic acid]
IC50 (human CRTH2 [1]): < 500 nM
IC50 (human CRTH2 [2]): < 500 nM

CC(Oc1ccc(Br)cc1C(=O)c1cnn(-c2ccccc2Oc2ccccc2)c1)C(=O)O (centres unmarked) [D47, 2-{4-Bromo-2-[1-(2-phenoxyphenyl)-1H-pyrazole-4-carbonyl]phenoxy}propionic acid]
IC50 (human CRTH2 [1]): < 500 nM
IC50 (human CRTH2 [2]): < 500 nM

CCOc1ccccc1-n1cc(C(=O)c2cc(Br)ccc2OC(C)C(=O)O)cn1 (centres unmarked) [D48, 2-{4-Bromo-2-[1-(2-ethoxyphenyl)-1H-pyrazole-4-carbonyl]phenoxy}propionic acid]
IC50 (human CRTH2 [1]): < 500 nM
IC50 (human CRTH2 [2]): < 500 nM

CSc1ccccc1-n1cc(C(=O)c2cc(Br)ccc2OC(C)C(=O)O)cn1 (centres unmarked) [D49, 2-{4-Bromo-2-[1-(2-methylthio)-1H-pyrazole-4-carbonyl]phenoxy}propionic acid]
IC50 (human CRTH2 [1]): < 500 nM
IC50 (human CRTH2 [2]): < 500 nM

Cc1ccc(-n2cc(C(=O)c3cc(Br)ccc3OC(C)C(=O)O)cn2)c(Br)c1 (centres unmarked) [D50, 2-{4-Bromo-2-[1-(2-bromo-4-methylphenyl)-1H-pyrazole-4-carbonyl]phenoxy}propionic acid]
IC50 (human CRTH2 [1]): < 500 nM
IC50 (human CRTH2 [2]): < 500 nM

CC(Oc1ccc(Br)cc1C(=O)c1cnn(-c2ccc(Cl)cc2Cl)c1)C(=O)O (centres unmarked) [D51, 2-{4-Bromo-2-[1-(2,4-dichlorophenyl)-1H-pyrazole-4-carbonyl]phenoxy}propionic acid]
IC50 (human CRTH2 [1]): < 500 nM
IC50 (human CRTH2 [2]): < 500 nM

O=C(O)COc1ccc(Br)cc1C(=O)c1cnn(-c2ccccc2OC(F)(F)F)c1 [D52, {4-Bromo-2-[1-(2-trifluoromethoxyphenyl)-1H-pyrazole-4-carbonyl]phenoxy}acetic acid]
IC50 (human CRTH2 [1]): < 500 nM
IC50 (human CRTH2 [2]): < 500 nM

CCc1ccc(OCC(=O)O)c(C(=O)c2cnn(-c3c(Cl)cccc3Cl)c2)c1 [D53, {2-[1-(2,6-Dichlorophenyl)-1H-pyrazole-4-carbonyl]-4-ethylphenoxy}acetic acid]
IC50 (human CRTH2 [1]): < 500 nM
IC50 (human CRTH2 [2]): < 500 nM

Cc1ccc(-n2cc(C(=O)c3cc(Br)ccc3OCC(=O)O)cn2)c(C)c1 [D54, {4-Bromo-2-[1-(2,4-dimethylphenyl)-1H-pyrazole-4-carbonyl]phenoxy}acetic acid]
IC50 (human CRTH2 [1]): < 500 nM
IC50 (human CRTH2 [2]): < 500 nM

Cc1ccc(-n2cc(C(=O)c3cc(Br)ccc3OC(C)C(=O)O)cn2)c(C)c1 (centres unmarked) [D55, 2-{4-Bromo-2-[1-(2,4-dimethylphenyl)-1H-pyrazole-4-carbonyl]phenoxy}propionic acid]
IC50 (human CRTH2 [1]): < 500 nM
IC50 (human CRTH2 [2]): < 500 nM

O=C(O)COc1ccc(Br)cc1C(=O)c1cnn(Cc2ccccc2)c1 [D56, [2-(1-Benzyl-1H-pyrazole-4-carbonyl)-4-bromophenoxy]acetic acid]
IC50 (human CRTH2 [1]): < 500 nM
IC50 (human CRTH2 [2]): < 500 nM

CC(Oc1ccc(Br)cc1C(=O)c1cnn(Cc2ccccc2)c1)C(=O)O (centres unmarked) [D57, 2-[2-(1-Benzyl-1H-pyrazole-4-carbonyl)-4-bromophenoxy]propionic acid]
IC50 (human CRTH2 [1]): < 500 nM
IC50 (human CRTH2 [2]): < 500 nM

Cc1cc(Cl)ccc1-n1cc(C(=O)c2cc(Br)ccc2OCC(=O)O)cn1 [D58, {4-Bromo-2-[1-(4-chloro-2-methylphenyl)-1H-pyrazole-4-carbonyl]phenoxy}acetic acid]
IC50 (human CRTH2 [1]): < 500 nM
IC50 (human CRTH2 [2]): < 500 nM

O=C(O)COc1ccc(Br)cc1C(=O)c1cnn(-c2cc(Cl)ccc2Cl)c1 [D59, {4-Bromo-2-[1-(2,5-dichlorophenyl)-1H-pyrazole-4-carbonyl]phenoxy}acetic acid]
IC50 (human CRTH2 [1]): < 500 nM
IC50 (human CRTH2 [2]): < 500 nM

COc1ccccc1-n1cc(C(=O)c2cc(Br)ccc2OCC(=O)O)cn1 [D60, {4-Bromo-2-[1-(2-methoxyphenyl)-1H-pyrazole-4-carbonyl]phenoxy}acetic acid]
IC50 (human CRTH2 [1]): < 500 nM
IC50 (human CRTH2 [2]): < 500 nM

O=C(O)COc1ccc(Br)cc1C(=O)c1cnn(-c2ccc(Cl)c(Cl)c2)c1 [D61, {4-Bromo-2-[1-(3,4-dichlorophenyl)-1H-pyrazole-4-carbonyl]phenoxy}acetic acid]
IC50 (human CRTH2 [1]): < 500 nM
IC50 (human CRTH2 [2]): < 500 nM

Cc1cc(Cl)ccc1-n1cc(C(=O)c2cc(Br)ccc2OC(C)C(=O)O)cn1 (centres unmarked) [D62, 2-{4-Bromo-2-[1-(4-chloro-2-methylphenyl)-1H-pyrazole-4-carbonyl]phenoxy}propionic acid]
IC50 (human CRTH2 [1]): < 500 nM
IC50 (human CRTH2 [2]): < 500 nM

CC(Oc1ccc(Br)cc1C(=O)c1cnn(-c2cc(Cl)ccc2Cl)c1)C(=O)O (centres unmarked) [D63, 2-{4-Bromo-2-[1-(2,5-dichlorophenyl)-1H-pyrazole-4-carbonyl]phenoxy}propionic acid]
IC50 (human CRTH2 [1]): < 500 nM
IC50 (human CRTH2 [2]): < 500 nM

CC(Oc1ccc(Br)cc1C(=O)c1cnn(-c2ccc(Cl)c(Cl)c2)c1)C(=O)O (centres unmarked) [D64, 2-{4-Bromo-2-[1-(3,4-dichloro-phenyl)-1H-pyrazole-4-carbonyl]phenoxy}propionic acid]
IC50 (human CRTH2 [1]): < 500 nM
IC50 (human CRTH2 [2]): < 500 nM

COc1ccccc1-n1cc(C(=O)c2cc(Br)ccc2OC(C)C(=O)O)cn1 (centres unmarked) [D65, 2-{4-Bromo-2-[1-(2-methoxyphenyl)-1H-pyrazole-4-carbonyl]phenoxy}propionic acid]
IC50 (human CRTH2 [1]): < 500 nM
IC50 (human CRTH2 [2]): < 500 nM

Nc1ccc(OCC(=O)O)c(C(=O)c2cnn(-c3ccccc3)c2)c1 [D66, [4-Amino-2-(1-phenyl-1H-pyrazole-4-carbonyl)phenoxy]acetic acid]
IC50 (human CRTH2 [1]): < 500 nM
IC50 (human CRTH2 [2]): 500 to 5000 nM

CC(Oc1ccc(Br)cc1C(=O)c1cnn(-c2c(Cl)cc(Cl)cc2Cl)c1)C(=O)O (centres unmarked) [D68, 2-{4-Bromo-2-[1-(2,4,6-trichlorophenyl)-1H-pyrazole-4-carbonyl]phenoxy}propionic acid]
IC50 (human CRTH2 [1]): < 500 nM
IC50 (human CRTH2 [2]): < 500 nM

CC(Oc1ccc(Br)cc1C(=O)c1cnn(-c2ccc(Br)cc2Br)c1)C(=O)O (centres unmarked) [D69, 2-{4-Bromo-2-[1-(2,4-dibromophenyl)-1H-pyrazole-4-carbonyl]phenoxy}propionic acid]
IC50 (human CRTH2 [1]): < 500 nM
IC50 (human CRTH2 [2]): < 500 nM
